From patent publication US20130337486A1, “MICROFLUIDIC DEVICE FOR HIGH-[…] GRADIENT AND DOSE RESPONSE STUDIES” (UCSD Tech Transfer Office, priority 2005, published 2013)

How the values were obtained:
a-Type Yeast = experiment: Phenotypic dose response of single yeast cells to a pheromone gradient in the microfluidic device; type: cell-based
Procedure: (§1) Using a device of the invention such as that shown in FIG. 1, analysis of phenotypic dose response in single cells was performed. Yeast cells were grown in YPD media to mid-log phase, and concentrated 10-fold before loading into syringes. The maximum pheromone concentrations used in the experiments was typically 75-100 nM, with varying minimum and maximum ranges for specific experiments. Pheromone diffusion was estimated by fluorescence imaging of the diffusion of Alexa Fluor dye 555 Hydrozide (Molecular Probes), with the MW of approximately 1150 Da (cf. 1684 Da MW of the a-factor), which was used at the concentration of 5 μM. […]
(§2) Images were acquired using the Nikon Eclipse TE2000-U inverted epi-fluorescence microscope, using 20× (evaluation of the gradient values), and 100× (oil immersion; evaluation of yEGFP fluorescence) objectives. Phase contrast images were taken with automatic exposure control, whereas most fluorescence measurements involved manually specified fixed exposure times. Typical gradient measurements using Alexa Fluor 555 dye were obtained using red filter (G-2 EIC, 540/25 excitation wavelength) at a fixed exposure time of 1 sec, whereas yEGFP-mediated fluorescence was obtained using the green filter (YEL-GFP HQ, 500/20 excitation wavelength) at fixed exposure times of 3 secs. […]

Fus1-yEGFP = Fus1-yEGFP expression in yeast cell clusters exposed to a pheromone gradient; type: cell-based
Procedure: as §1, §2

Substance: α-factor
- phenotype after pre-incubation in high uniform pheromone concentration (a-Type Yeast; 75 nM uniform pheromone for 4 hrs): shmoo formation by all cells
- pheromone concentration range in which percentages of budded (BD), cell cycle arrest (CCA) and SM cells were comparable (a-Type Yeast; pheromone gradients from 0 up to 100 nM in test chambers): 15 to 40 nM
- pheromone concentration range with clear bimodal nuclear Fus1-yEGFP response (Fus1-yEGFP; six hours after exposure to 0-75 nM pheromone gradient): 15 to 45 nM
- difference in Fus1-yEGFP expression between SM cells and cells of all other phenotypes in the bimodal region (Fus1-yEGFP; six hours, 0-75 nM pheromone gradient, bimodal region): approximately 1.7 fold
